# Laboratory results: ChEMBL document CHEMBL5104153, “De novo design of type II topoisomerase inhibitors as potential antimicrobial agents targeting a novel binding region” (RSC Med Chem, 2022)
# What was measured:
# [1] = Inhibition of Escherichia coli topoisomerase 4 assessed as relaxation of supercoiled plasmid pBR322 DNA and measured after 30 mins
# DNA gyrase = DNA gyrase (Escherichia coli, UniProt P0AES4+P0AES6); experiment: Inhibition of Escherichia coli DNA gyrase supercoiling activity using pBR322 as substrate incubated for 30 mins measured by gel-based assay; assay type: protein-complex assay
# Staphylococcus aureus = experiment: Antibacterial activity against Staphylococcus aureus measured by broth microdilution assay
# Escherichia coli = experiment: Antibacterial activity against Escherichia coli measured by broth microdilution assay
IC50 [1] [µM],Structure (SMILES),IC50 (DNA gyrase) [µM],MIC (Staphylococcus aureus) [µg/mL],MIC (Escherichia coli) [µg/mL]
> 100,CCOc1cccc(-c2cccc(C(=O)N[C@@H](CN)c3ccccc3)c2)c1F,,,
> 100,NC[C@H](NC(=O)c1cccc(-c2ccccc2C(F)(F)F)c1)c1ccccc1,,,
> 100,COc1ccccc1-c1cccc(C(=O)NC(CN)c2cccc(O)c2)c1 (configuration not stated),,,

Structure (SMILES),IC50 [1] [µM],IC50 (DNA gyrase) [µM],MIC (Staphylococcus aureus) [µg/mL],MIC (Escherichia coli) [µg/mL]
Cl.NCC(NC(=O)c1cccc(-c2cccs2)c1)c1ccc(O)cc1 (configuration not stated),> 540,0.3,8,8
